Assay results taken from PMC11571215, “Optimization of Antiproliferative Properties of Triimine Copper(II) Complexes” (Journal of Medicinal Chemistry, 2024).

Key:
[1] = system: pUC18 plasmid DNA (pDNA); experiment: Plasmid DNA interaction and cleavage (gel electrophoresis); details: 24 h; for pDNA cleavage / isoform change: 100 ng pUC18, 5–100 μM complex, 37 °C; for pDNA cleavage in presence of NaN3 scavenger: 50 μM complex + 50 μM NaN3, 37 °C; for pDNA cleavage in presence of H2O2: 50 μM complex + 100 μM H2O2, 37 °C
Procedure: The procedure involved exposing 100 ng of pDNA (pUC18) to increasing concentrations of complexes Cu1a and Cu1b (5, 25, 50, 75, and 100 μM), which were incubated at 37 °C for 24 h.
The sodium azide (NaN3) scavenger, capable of quenching singlet oxygen (^−1O2), was used for this purpose.[93] Additionally, hydrogen peroxide (H2O2) was employed as a well-known positive control for DNA cleavage through oxidative mechanisms in the presence of ROS.[71]
Experiments were conducted with 100 ng of pUC18 DNA incubated with increasing concentrations of Cu1a and Cu1b complexes (5, 25, 50, 75, and 100 μM) or in their absence (pUC18 only or with 0.1% DMSO (v/v), both negative controls). For this assay, positive control was included, containing pUC18 DNA (100 ng) previously incubated with the HindIII enzyme to linearize the plasmid in the last 2 h of incubation. […] Electrophoresis was performed in 0.8% (w/v) agarose gel (NZYtech) in TAE 1× buffer at a constant voltage of 70 V for 80 min. The electrophoresis gel image was acquired using the Gel Doc EZ Imager (Bio-Rad), and band quantification was performed using ImageJ software.
The pDNA (100 ng) was exposed to reactive oxygen species (ROS) scavenging agents, namely, sodium azide (NaN3) at 50 μM and hydrogen peroxide (H2O2) at 100 μM. […] Controls were also included where 100 ng of pUC18 was exposed to 0.1% (v/v) DMSO, and the activity of the HindIII restriction enzyme (linearized plasmid control) for 24 h. All the samples were adjusted to a final volume of 20 μL and incubated for 24 hs at 37 °C. […] The electrophoresis gel image was acquired in Gel Doc EZ Imager (Bio-Rad) and band quantification was performed using ImageJ software.

[2] = system: normal human primary dermal fibroblasts; experiment: MTS cell viability assay, normal fibroblasts; format: cell-based; details: 48 h of exposure
Procedure: The antiproliferative effect of the Cu(II) complexes in tumor and healthy cell lines was assessed through the MTS assay, a colorimetric method that is widely used to evaluate cellular viability, specifically mitochondrial viability.[53],[54] Cellular viability was determined after 48 h exposure to a concentration range (0.1–50 μM) of Cu(II) complexes in three tumor cell lines. […] Additionally, the viability of healthy primary dermal fibroblasts was performed as a comparison of the complexes’ antiproliferative effects in normal cells.
Cellular viability assays were performed using HCT116, HCT116-DoxR, and A2780 cancer cell lines as well as normal human primary fibroblasts. Cells were seeded at a density of 0.75 × 10^5 cells/mL in 96-well plates and incubated at 37 °C with 5% (v/v) CO2 for 24 h. After this incubation period, the copper complexes were accurately weighed and immediately dissolved in 100% (v/v) dimethyl sulfoxide (DMSO). Subsequently, the complexes were diluted to the final concentration using a cell culture medium. The culture medium in each well was replaced with fresh medium containing varying concentrations of the complexes (ranging from 0.01 to 50 μM). Negative controls contained culture medium with 0.1% (v/v) DMSO, and positive controls contained 0.4 μM Dox.
After an additional 48 h of incubation under the same conditions, cellular viability was assessed using the CellTiter 96 Aqueous One Solution Cell Proliferation Assay kit (Promega, Madison, USA). […] The absorbance of formazan, measured at 490 nm in a microplate reader (Tecan Infinite M200, Tecan, Männedorf, Switzerland), is directly proportional to the number of viable cells.[104]
The cell viability versus concentration graphics were analyzed using Prism 8 software (GraphPad) to determine the half-maximal inhibitory concentration (IC50) of each complex for the respective cell line. Additionally, the selective index (SI) for each complex was calculated by dividing the IC50 of human fibroblasts by the IC50 values of the tested cancer cell lines.

[3] = biological target: T1, bovine serum albumin (BSA) (Bos taurus, UniProt P02769); experiment: Interaction with bovine serum albumin (UV-vis, fluorescence); format: binding; details: 24 h, 37 °C; for BSA UV-Visible absorbance change: BSA 20 µM, complexes 10, 25 and 50 µM; for BSA fluorescence quenching: BSA 20 μM, complexes 10-100 µM, excitation 278 nm
T1 construct: composed of single polypeptide chains with 583 amino
T1 sequence (P02769 25-607): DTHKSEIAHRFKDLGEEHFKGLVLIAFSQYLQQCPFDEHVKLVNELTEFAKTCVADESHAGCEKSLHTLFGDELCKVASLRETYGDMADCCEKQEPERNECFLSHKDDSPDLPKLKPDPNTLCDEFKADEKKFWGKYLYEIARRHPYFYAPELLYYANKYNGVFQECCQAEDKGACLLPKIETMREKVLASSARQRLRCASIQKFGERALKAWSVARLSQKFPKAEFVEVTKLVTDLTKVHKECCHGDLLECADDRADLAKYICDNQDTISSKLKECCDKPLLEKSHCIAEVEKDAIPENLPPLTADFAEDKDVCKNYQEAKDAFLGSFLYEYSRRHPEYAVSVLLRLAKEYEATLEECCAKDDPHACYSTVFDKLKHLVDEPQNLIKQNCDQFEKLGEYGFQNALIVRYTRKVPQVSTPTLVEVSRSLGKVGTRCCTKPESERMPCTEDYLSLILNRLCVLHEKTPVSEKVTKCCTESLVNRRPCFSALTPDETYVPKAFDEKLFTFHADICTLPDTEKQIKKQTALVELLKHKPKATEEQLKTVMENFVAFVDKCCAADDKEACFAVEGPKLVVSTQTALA
Procedure: All solutions used to perform the BSA interaction assays were diluted in filtered buffer (10 mM phosphate buffer and 150 mM NaCl) pH 7.0, with BSA at a fixed final concentration of 20 μM and the concentrations of the complexes varying from 10 to 100 μM. Control solutions were also prepared, namely, a solution containing only BSA, a solution consisting of BSA + DMSO, and a solution consisting of DMSO only. Solutions were analyzed after 24 h of incubation at 37 °C. UV–visible absorption spectra were acquired using the Evolution 300 UV–vis (Thermo Fisher Scientific, Waltham, MA, USA) in the wavelength range between 245 and 500 nm in quartz cuvettes. The fluorescence of the samples mentioned was analyzed using a Cary Eclipse fluorimeter (VARIAN, California, USA). The BSA molecule was excited at 278 nm (maximum absorption peak), and emission was recorded between 290 and 500 nm. The setup was set at a slow speed (120 nm/min) using 5 nm slits. The absorbance value of the buffer containing DMSO (at the respective percentages) was subtracted from that of each sample.
12. Interaction with Bovine Serum Albumin (BSA)
In the perspective of translating the complexes into clinical practice and considering their administration and distribution in the human body, it is essential to examine their potential interaction with albumin, a protein present in human plasma at high concentrations. In this regard, bovine serum albumin (BSA) was utilized as a model. BSA is the most abundant plasma protein in vertebrates, sharing approximately 76% similarity with human serum albumin (HSA) and composed of single polypeptide chains with 583 amino […]
UV-Visible spectroscopy is an effective method for predicting conformational changes in proteins when interacting with small molecules such as drugs. The interaction of BSA […]
spectroscopy, considering the intrinsic fluorescence of tryptophan residues in BSA. Figure […]
DMSO and BSA in the presence of increasing concentrations of the metallic complexes.
(1 picture or pasted object on this page, not shown here)

[Cl][Cu-3]12([Cl])[n+]3ccccc3-c3cc(-c4ccc5ccccc5c4)cc([n+]31)-c1cccc[n+]12 [Cu1b]
pDNA cleavage / isoform change [1]: a decrease in supercoiled forms and an increase in the intensity of the circular isoform at concentrations of 25 and 50 μM | pDNA cleavage in presence of NaN3 scavenger [1]: an increase in the supercoiled isoform and a decrease in the nicked isoform | pDNA cleavage in presence of H2O2 [1]: a complete disappearance of pDNA isoforms is observed | IC50 [2]: 13.3 ± 1 µM | BSA UV-Visible absorbance change [3]: hypochromism | BSA fluorescence quenching [3]: an increased quenching effect was observed

[Cl][Cu-3]12([Cl])[n+]3ccccc3-c3cc(-c4cccc5ccccc45)cc([n+]31)-c1cccc[n+]12 [Cu1a]
pDNA cleavage / isoform change [1]: an increase in the circular form (N) was observed compared to negative control with the simultaneous decrease of the supercoiled isoform | pDNA cleavage in presence of NaN3 scavenger [1]: an increase in the supercoiled isoform and a reduction in the nicked isoform | pDNA cleavage in presence of H2O2 [1]: pDNA cleavage increased compared to H2O2 alone | IC50 [2]: 9.26 ± 0.9 µM | BSA UV-Visible absorbance change [3]: hypochromism | BSA fluorescence quenching [3]: attenuation of BSA fluorescence was observed
